Experimental data: patent US9200011B2, “Ring constrained analogs as arginase inhibitors” (Mars, Incorporated, priority 2012, dated 2015)

What was measured:
[1] = test system: tumor bearing mice; conditions: cited from earlier work
[2] = test system: animals undergoing experimental autoimmune encephalomyelitis (EAE); conditions: mouse, in vivo; cited from earlier work
[3] = target: T1, arginase II (ARG II) (Homo sapiens, UniProt P78540); assay: Inhibition of arginase II, spectrophotometric urea assay at 530 nm; assay type: biochemical; conditions: potency rank 1-5; pH 7.4, 37° C., 60 minutes
T1 sequence (P78540 23-354): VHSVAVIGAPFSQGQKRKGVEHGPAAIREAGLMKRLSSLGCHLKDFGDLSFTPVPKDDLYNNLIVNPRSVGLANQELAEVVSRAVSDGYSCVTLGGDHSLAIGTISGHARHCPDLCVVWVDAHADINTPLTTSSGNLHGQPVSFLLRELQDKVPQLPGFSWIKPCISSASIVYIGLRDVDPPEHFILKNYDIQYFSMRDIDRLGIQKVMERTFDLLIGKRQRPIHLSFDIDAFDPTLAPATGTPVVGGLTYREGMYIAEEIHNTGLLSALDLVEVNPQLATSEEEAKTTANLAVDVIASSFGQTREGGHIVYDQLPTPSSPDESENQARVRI
Description: (§1) The assay established the concentration of inhibitor that is required to reduce arginase activity by 50% (IC50).
(§2) Inhibition of arginase I (ARG I) and arginase II (ARG II) by the inventive compounds is followed spectrophotometrically at 530 nm. The compound to be tested is dissolved in DMSO at an initial concentration 50-fold greater than its final concentration in the cuvette. 10 μl of the stock solution is diluted in 90 μl of the assay buffer that comprises 0.1M sodium phosphate buffer containing 130 mM NaCl, pH 7.4, to which is added ovalbumin (OVA) at a concentration of 1 mg/ml. Solutions of arginase I and II are prepared in 100 mM sodium phosphate buffer, pH 7.4 containing 1 mg/ml of OVA to give an arginase stock solution at a final concentration of 100 ng/ml.
(§3) To each well of a 96-well microtiter plate is add 40 μl of enzyme, 10 μl of an inventive compound and 10 μl of enzyme substrate (L-arginine+manganese sulfate). For wells that are used as positive controls, only the enzyme and its substrate are added, while wells used as negative controls contain only manganese sulfate.
(§4) After incubating the microtiter plate at 37° C. for 60 minutes, 150 μl of a urea reagent obtained by combining equal proportions (1:1) of reagents A and B is added to each well of the microtiter plate to stop the reaction. The urea reagent is made just before use by combining Reagent A (10 mM o-phthaldialdehyde, and 0.4% polyoxyethylene (23) lauryl ether (w/v) in 1.8 M sulfuric acid) with Reagent B (1.3 mM primaquine diphosphate, 0.4% polyoxyethylene (23) lauryl ether (w/v), 130 mM boric acid in 3.6 M sulfuric acid). After quenching the reaction mixture, the microtiter plate is allowed to stand for an additional 10 minutes at room temperature to allow color development. The inhibition of arginase is computed by measuring the optical density (OD) of the reaction mixture at 530 nm and normalizing the OD value to percent inhibition observed in the control. The normalized OD is then used to generate a dose-response curve by plotting the normalized OD values against log [concentration] and using regression analysis to compute the IC50 values.

[4] = target: T2, human arginase I (ARG I) (Homo sapiens, UniProt P05089); assay: Inhibition of arginase I, spectrophotometric urea assay at 530 nm; assay type: biochemical; conditions: potency rank 1-5; pH 7.4, 37° C., 60 minutes
T2 sequence (P05089 1-322): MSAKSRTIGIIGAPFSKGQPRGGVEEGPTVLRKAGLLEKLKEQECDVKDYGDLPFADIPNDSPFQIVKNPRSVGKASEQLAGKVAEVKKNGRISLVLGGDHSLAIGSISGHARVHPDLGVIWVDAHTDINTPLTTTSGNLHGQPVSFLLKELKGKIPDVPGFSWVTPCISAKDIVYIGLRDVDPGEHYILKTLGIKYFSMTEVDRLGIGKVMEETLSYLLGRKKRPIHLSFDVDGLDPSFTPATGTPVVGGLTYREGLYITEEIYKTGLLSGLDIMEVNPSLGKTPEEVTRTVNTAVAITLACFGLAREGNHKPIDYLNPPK
Description: as §1, §2, §3, §4

[5] = test system: bacterial arginase; conditions: cited from earlier work
[6] = test system: murine chronic model; conditions: murine chronic asthma model; cited from earlier work
[7] = test system: spontaneously hypertensive rats; conditions: cited from earlier work

SMILES | IC50 [3] [nM] | IC50 [4] [nM] | other results
O=c1[nH]cc(F)c(=O)[nH]1 [5-Fluorouracil] | – | – | MDSC immunesuppression [1]: eliminates; tumor growth [1]: delayed tumor growth
NC(CCCCB(O)O)C(=O)O (stereo not shown) [ABH, amino-6-boronohexanoic acid] | – | – | severity of EAE versus control animals [2]: much milder form of EAE
N[C@@]1(C(=O)O)C[C@@H](CNCc2ccccc2)C[C@@H]1CCCB(O)O [Example 1, (1S,2S,4S)-1-amino-4-((benzylamino)methyl)-2-(3-boronopropyl)cyclopentanecarboxylic acid] | 26 to 100 | 26 to 100 | –
NC(=NCCC[C@H](N)C(=O)O)NO [NOHA] | – | – | CD3 expression on T-cells [5]: reestablished; production of NO by macrophages [5]: enhanced
N[C@@H](CSCCB(O)O)C(=O)O [S-(2-boronoethyl)-L-cysteine] | – | – | methacholine induced responsiveness of the central airways [6]: attenuated
Nc1ccn([C@@H]2O[C@H](CO)[C@@H](O)C2(F)F)c(=O)n1 [gemcitabine] | – | – | MDSC immunesuppression [1]: eliminates; tumor growth [1]: delayed tumor growth
N=C(NO)NCC[C@H](N)C(=O)O [nor-NOHA, N^ω-hydroxy-nor-L-arginine] | – | – | vascular response of resistance vessels to blood flow and pressure ([7]; spontaneously hypertensive animals): improved; blood pressure ([7]; spontaneously hypertensive rats/animals): lowered blood pressure

Now from value to compound, other results behind:

IC50 [3] [nM] | IC50 [4] [nM] | SMILES | other results
26 to 100 | 26 to 100 | N[C@@]1(C(=O)O)C[C@@H](CNCc2ccc(-c3ccc(Cl)cc3)cc2)C[C@@H]1CCCB(O)O [Example 2, (1S,2S,4S)-1-amino-2-(3-boronopropyl)-4-((((4′-chloro-[1,1′-biphenyl]-4-yl)methyl)amino)methyl)cyclopentanecarboxylic acid] | –
101 to 500 | 26 to 100 | N[C@@]1(C(=O)O)C[C@@H](CNC2Cc3ccccc3C2)C[C@@H]1CCCB(O)O [Example 3, (1S,2S,4S)-1-amino-2-(3-boronopropyl)-4-(((2,3-dihydro-1H-inden-2-yl)amino)methyl)cyclopentanecarboxylic acid] | –
26 to 100 | 26 to 100 | N[C@@]1(C(=O)O)C[C@@H](CNC2CCc3ccccc3C2)C[C@@H]1CCCB(O)O (stereo partly drawn) [Example 4, (1S,2S,4S)-1-amino-2-(3-boronopropyl)-4-(((1,2,3,4-tetrahydronaphthalen-2-yl)amino)methyl)cyclopentanecarboxylic acid] | –
101 to 500 | 26 to 100 | N[C@@]1(C(=O)O)C[C@@H](CNC2CCC2)C[C@@H]1CCCB(O)O [Example 5, (1S,2S,4S)-1-amino-2-(3-boronopropyl)-4-((cyclobutylamino)methyl)cyclopentanecarboxylic acid] | –
101 to 500 | 101 to 500 | N[C@@]1(C(=O)O)C[C@@H](CN(C2CCC2)C2CCC2)C[C@@H]1CCCB(O)O [Example 6, (1S,2S,4S)-1-amino-2-(3-boronopropyl)-4-((dicyclobutylamino)methyl)cyclopentanecarboxylic acid] | –
501 to 1500 | 501 to 1500 | CN[C@@]1(C(=O)O)CCC[C@@H]1CCCB(O)O [Example 7, (1S,2S)-2-(3-boronopropyl)-1-(methylamino) cyclopentanecarboxylic acid] | –
101 to 500 | 101 to 500 | N[C@@]1(C(=O)O)CCC[C@@H]1CCCB(O)O [Example 8, (1S,2S)-1-amino-2-(3-boronopropyl)cyclopentanecarboxylic acid] | –
101 to 500 | 101 to 500 | N[C@@]1(C(=O)O)CNC[C@@H]1CCCB(O)O [Example 9, (3R,4S)-3-amino-4-(3-boronopropyl)pyrrolidine-3-carboxylic acid] | –
